Measurements taken from PubChem BioAssay AID2060912 (Molecular Pharmacology Branch, DTP, NCI, 2025).

Test system: HUVEC/MSC spheroids viability
Assay: Human HUVEC/MSC cell line growth inhibition [KRAS2];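 on viability, T/C: percent of DMSO vehicle control luminescence so 100% = untreated viability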
Conditions: for IC50: curve of first compound; for viability, T/C: stronger effect = lower value
Text: Multicellular complex tumor spheroid response to RAS pathway inhibitors in combination with a targeted agents in patient-derived cell lines with oncogenic KRAS variants from multiple cancer types
A high-throughput screen of multi-cell type tumor spheroids was designed to identify active combinations of targeted small molecules and KRAS pathway inhibitors. Complex spheroids include a stromal component modeled by human endothelial cells (HUVEC) and fibroblasts modeled by human mesenchymal stem cells (MSCs). The concentration ranges selected for each drug and investigational agent were based upon clinically achievable concentrations if the clinical Cmax of the agent was known. * [This particular assayID is a followup dataset requested by reviewers of the manuscript. It is a test of the HUVEC and MSC without the tumor cells, and was conducted using different drug plates and a different plate layout.]
Compounds. The drugs and investigational agents: BI-3406 (NSC825286), BAY-293 (NSC824723), batoprotafib (TNO155; NSC825523), sotorasib (AMG 510; NSC818433), MRTX1257 (NSC819558), elimusertib (BAY 1895344; NSC800525), molibresib (GSK525762; NSC774829), temuterkib (LY3214996; NSC803410), venetoclax (NSC766270), alisertib (NSC759677), olaparib (NSC753686), talazoparib (NSC767125), erdafitinib (NSC781556), ipatasertib (NSC767898), cabozantinib (NSC761068), nintedanib (NSC756659), abemaciclib (NSC768073), docetaxel (NSC628503), trametinib (NSC758246), and sapanisertib (NSC764658) were obtained from the National Cancer Institute (NCI) Developmental Therapeutics Program Chemical Repository. The FDA-approved anticancer drug set is available from the Developmental Therapeutics Program. […] The stock solutions were prepared in dimethyl sulfoxide (DMSO, Sigma-Aldrich, St. Louis, MO, cat. D2650) at 800-fold the tested concentration and stored at -70 degrees C prior to their use. All drugs and investigational agents were tested over a range starting from a high concentration at or near the clinical Cmax and decreasing in half-log increments. If the clinical Cmax for an agent had not been determined, the highest concentration tested was 10 microM.
Cell Culture. All cells were maintained in an incubator at 37 degrees C and 5% CO2 with 95% humidity. The PDC lines were cultured according to standard operating procedures established by the NCI PDMR (https://pdmr.cancer.gov/sops/default.htm). Briefly, all PDCs were thawed and cultured in Matrigel-coated flasks prepared with a working solution of 1X Ham's F-12 nutrient mix, without supplementation (Invitrogen, Waltham, MA, cat. 11765054), 100 U/mL penicillin-streptomycin (Invitrogen, cat. 15140122), and 2.5% Matrigel (Corning Inc., Corning, NY, cat. 354248) for the first three passages. All PDCs were cultured in complete DMEM/F-12 media containing advanced DMEM/F-12 (Invitrogen, cat. 12634028), 4.9% defined fetal bovine serum, heat inactivated (HyClone Laboratories Inc., Logan, UT, cat. SH30070.03HI), 389 ng/mL hydrocortisone (Sigma-Aldrich, cat. H4001), 9.7 ng/mL human EGF recombinant protein (Invitrogen, cat. PHG0313), 23.4 microg/mL adenine (Sigma-Aldrich, cat. A2786), 97.3 U/mL penicillin-streptomycin (Invitrogen, cat. 15140122), 1.9 mM L-glutamine (Invitrogen, cat. 25030081), and 9.7 microM Y-27632 dihydrochloride (Tocris Bioscience, Bristol, United Kingdom, cat. 1254). The PDCs were cultured in complete DMEM/F12 media without 9.7 microM Y-27632 dihydrochloride for at least two passages prior to the screen. The established cell line HOP-62 was cultured in RPMI 1640 medium, HEPES (Invitrogen, cat. 22400105) with 10% defined fetal bovine serum (HyClone Laboratories Inc., cat. SH30070.03) and 2 mM L-glutamine (Invitrogen, cat. 25030081). The pooled donor HUVEC were cultured in endothelial cell growth medium 2 (PromoCell, Heidelberg, Germany, cat. C-22011) and the hMSC were cultured in mesenchymal stem cell growth medium 2 (PromoCell, cat. C-28009). […]

Q: Which results are given for `CC(=O)OC12COC1CC(O)C1(C)C(=O)C(O)C3=C(C)C(OC(=O)C(O)C(NC(=O)OC(C)(C)C)c4ccccc4)CC(O)(C(OC(=O)c4ccccc4)C21)C3(C)C` (centres undefined) + C=CC(=O)N1CCN(c2nc(=O)n(-c3c(C)ccnc3C(C)C)c3nc(-c4c(O)cccc4F)c(F)cc23)C(C)C1?
A: IC50 (second compound 0.0316 µM): > 3000 nM; IC50 (second compound 0.1 µM): > 3000 nM; IC50 (second compound 0.316 µM): > 3000 nM; IC50 (second compound 1 µM): > 3000 nM; IC50 (second compound 3.16 µM): > 3000 nM; IC50 (second compound 10 µM): > 3000 nM; viability, T/C (second compound 0.0316 µM, first compound 0.00949 µM): 57.6%; viability, T/C (second compound 0.0316 µM, first compound 0.03 µM): 67.8%; viability, T/C (second compound 0.0316 µM, first compound 0.0949 µM): 47.2%; viability, T/C (second compound 0.0316 µM, first compound 0.3 µM): 41.4%; viability, T/C (second compound 0.0316 µM, first compound 0.949 µM): 63%; viability, T/C (second compound 0.0316 µM, first compound 3 µM): 55.2%; viability, T/C (second compound 0.1 µM, first compound 0.00949 µM): 65.5%; viability, T/C (second compound 0.1 µM, first compound 0.03 µM): 52.8%; viability, T/C (second compound 0.1 µM, first compound 0.0949 µM): 57.4%; viability, T/C (second compound 0.1 µM, first compound 0.3 µM): 54.1%; viability, T/C (second compound 0.1 µM, first compound 0.949 µM): 57.3%; viability, T/C (second compound 0.1 µM, first compound 3 µM): 63.7%; viability, T/C (second compound 0.316 µM, first compound 0.00949 µM): 54.5%; viability, T/C (second compound 0.316 µM, first compound 0.03 µM): 58.9%; viability, T/C (second compound 0.316 µM, first compound 0.0949 µM): 61.6%; viability, T/C (second compound 0.316 µM, first compound 0.3 µM): 57.5%; viability, T/C (second compound 0.316 µM, first compound 0.949 µM): 65%; viability, T/C (second compound 0.316 µM, first compound 3 µM): 70.3%; viability, T/C (second compound 1 µM, first compound 0.00949 µM): 57.1%; viability, T/C (second compound 1 µM, first compound 0.03 µM): 61.4%; viability, T/C (second compound 1 µM, first compound 0.0949 µM): 59.2%; viability, T/C (second compound 1 µM, first compound 0.3 µM): 59.8%; viability, T/C (second compound 1 µM, first compound 0.949 µM): 62.9%; viability, T/C (second compound 1 µM, first compound 3 µM): 67.9%; viability, T/C (second compound 3.16 µM, first compound 0.00949 µM): 66%; viability, T/C (second compound 3.16 µM, first compound 0.03 µM): 82.4%; viability, T/C (second compound 3.16 µM, first compound 0.0949 µM): 64.8%; viability, T/C (second compound 3.16 µM, first compound 0.3 µM): 84.4%; viability, T/C (second compound 3.16 µM, first compound 0.949 µM): 83.4%; viability, T/C (second compound 3.16 µM, first compound 3 µM): 101%; viability, T/C (second compound 10 µM, first compound 0.00949 µM): 100%; viability, T/C (second compound 10 µM, first compound 0.03 µM): 113%; viability, T/C (second compound 10 µM, first compound 0.0949 µM): 122%; viability, T/C (second compound 10 µM, first compound 0.3 µM): 113%; viability, T/C (second compound 10 µM, first compound 0.949 µM): 111%; viability, T/C (second compound 10 µM, first compound 3 µM): 124%

Q: Which results are given for `CN(C)C/C=C/C(=O)Nc1cc2c(Nc3ccc(F)c(Cl)c3)ncnc2cc1O[C@H]1CCOC1` + C=CC(=O)N1CCN(c2nc(=O)n(-c3c(C)ccnc3C(C)C)c3nc(-c4c(O)cccc4F)c(F)cc23)C(C)C1?
A: IC50 (second compound 0.0316 µM): > 100 nM; IC50 (second compound 0.1 µM): > 100 nM; IC50 (second compound 0.316 µM): > 100 nM; IC50 (second compound 1 µM): > 100 nM; IC50 (second compound 3.16 µM): > 100 nM; IC50 (second compound 10 µM): > 100 nM; viability, T/C (second compound 0.0316 µM, first compound 0.000316 µM): 98.4%; viability, T/C (second compound 0.0316 µM, first compound 0.001 µM): 115%; viability, T/C (second compound 0.0316 µM, first compound 0.00316 µM): 97%; viability, T/C (second compound 0.0316 µM, first compound 0.01 µM): 84.3%; viability, T/C (second compound 0.0316 µM, first compound 0.0316 µM): 91.4%; viability, T/C (second compound 0.0316 µM, first compound 0.1 µM): 88.9%; viability, T/C (second compound 0.1 µM, first compound 0.000316 µM): 116%; viability, T/C (second compound 0.1 µM, first compound 0.001 µM): 107%; viability, T/C (second compound 0.1 µM, first compound 0.00316 µM): 85.7%; viability, T/C (second compound 0.1 µM, first compound 0.01 µM): 80.1%; viability, T/C (second compound 0.1 µM, first compound 0.0316 µM): 111%; viability, T/C (second compound 0.1 µM, first compound 0.1 µM): 81%; viability, T/C (second compound 0.316 µM, first compound 0.000316 µM): 108%; viability, T/C (second compound 0.316 µM, first compound 0.001 µM): 109%; viability, T/C (second compound 0.316 µM, first compound 0.00316 µM): 87.3%; viability, T/C (second compound 0.316 µM, first compound 0.01 µM): 92.8%; viability, T/C (second compound 0.316 µM, first compound 0.0316 µM): 96.8%; viability, T/C (second compound 0.316 µM, first compound 0.1 µM): 100%; viability, T/C (second compound 1 µM, first compound 0.000316 µM): 107%; viability, T/C (second compound 1 µM, first compound 0.001 µM): 119%; viability, T/C (second compound 1 µM, first compound 0.00316 µM): 105%; viability, T/C (second compound 1 µM, first compound 0.01 µM): 124%; viability, T/C (second compound 1 µM, first compound 0.0316 µM): 112%; viability, T/C (second compound 1 µM, first compound 0.1 µM): 110%; viability, T/C (second compound 3.16 µM, first compound 0.000316 µM): 107%; viability, T/C (second compound 3.16 µM, first compound 0.001 µM): 129%; viability, T/C (second compound 3.16 µM, first compound 0.00316 µM): 114%; viability, T/C (second compound 3.16 µM, first compound 0.01 µM): 118%; viability, T/C (second compound 3.16 µM, first compound 0.0316 µM): 113%; viability, T/C (second compound 3.16 µM, first compound 0.1 µM): 131%; viability, T/C (second compound 10 µM, first compound 0.000316 µM): 128%; viability, T/C (second compound 10 µM, first compound 0.001 µM): 122%; viability, T/C (second compound 10 µM, first compound 0.00316 µM): 145%; viability, T/C (second compound 10 µM, first compound 0.01 µM): 97.3%; viability, T/C (second compound 10 µM, first compound 0.0316 µM): 124%; viability, T/C (second compound 10 µM, first compound 0.1 µM): 106%
